According to ChEMBL document CHEMBL1201862, “PubChem BioAssay data set” (2004):
The source made the active and inactive calls.

Legend:
Streptokinase A = target: T1, Streptokinase A (Streptococcus pyogenes serotype M1, UniProt P10520); experiment: viability-normalized secreted streptokinase activity reduction – plasminogen activation absorbance, OD405, dose response (AID 1914); type: functional, Streptococcus pyogenes M1 GAS;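 further: secreted streptokinase activity via plasminogen activation per viability signal from cell pellet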
T1 sequence (P10520 whole entry): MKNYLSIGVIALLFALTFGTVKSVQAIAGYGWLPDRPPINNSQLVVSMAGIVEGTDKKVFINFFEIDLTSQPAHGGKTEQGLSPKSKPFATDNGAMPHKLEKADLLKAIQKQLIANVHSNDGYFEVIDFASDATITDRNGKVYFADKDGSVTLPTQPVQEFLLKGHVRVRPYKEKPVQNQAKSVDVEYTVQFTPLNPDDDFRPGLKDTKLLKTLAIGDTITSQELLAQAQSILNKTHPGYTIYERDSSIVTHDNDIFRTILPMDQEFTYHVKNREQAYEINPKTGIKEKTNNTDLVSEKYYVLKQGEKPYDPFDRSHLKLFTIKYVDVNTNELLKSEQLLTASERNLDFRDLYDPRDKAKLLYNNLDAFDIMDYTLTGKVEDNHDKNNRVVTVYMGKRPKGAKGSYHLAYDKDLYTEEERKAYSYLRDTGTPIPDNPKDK

[1] = test system: Streptococcus sp. 'group A'; experiment: Streptococcus pyogenes SK(-)GAS viability under kanamycin – luminescence, BacTiterGlo, confirmation, counter-screen for streptokinase expression inhibitor project, dose response (AID 1900); type: functional, organism-based
Streptococcus = experiment: GAS UMAA2166 growth inhibition – luminescence, BacTiterGlo, counter-screen for streptokinase expression inhibitor project, dose response (AID 1915); type: functional, organism-based;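 further: potency for reduction of bacterial viability or growth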
[2] = target: T2, RNA-binding protein pos-1 (Caenorhabditis elegans, UniProt G5EF15); experiment: disruptors of C. elegans POS-1 RNA interaction – biochemical, fluorescence polarization, dose response (AID 1964);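 further: purified POS-1 fused to maltose binding protein made in E. coli; potency of compounds blocking POS-1 binding to fluorescent RNA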
T2 sequence (G5EF15 whole entry): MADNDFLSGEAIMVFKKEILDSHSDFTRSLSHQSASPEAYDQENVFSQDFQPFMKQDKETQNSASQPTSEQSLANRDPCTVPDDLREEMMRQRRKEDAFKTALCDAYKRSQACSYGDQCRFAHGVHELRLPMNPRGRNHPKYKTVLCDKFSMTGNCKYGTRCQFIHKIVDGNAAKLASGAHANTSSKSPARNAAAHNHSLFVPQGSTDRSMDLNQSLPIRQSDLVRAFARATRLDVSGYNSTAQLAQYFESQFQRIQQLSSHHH

[3] = target: T3, Zinc finger protein mex-5 (Caenorhabditis elegans, UniProt Q9XUB2); experiment: potency of MEX-5 RNA-binding blockers – biochemical, C. elegans, fluorescence polarization, dose response (AID 1960)
T3 sequence (Q9XUB2 whole entry): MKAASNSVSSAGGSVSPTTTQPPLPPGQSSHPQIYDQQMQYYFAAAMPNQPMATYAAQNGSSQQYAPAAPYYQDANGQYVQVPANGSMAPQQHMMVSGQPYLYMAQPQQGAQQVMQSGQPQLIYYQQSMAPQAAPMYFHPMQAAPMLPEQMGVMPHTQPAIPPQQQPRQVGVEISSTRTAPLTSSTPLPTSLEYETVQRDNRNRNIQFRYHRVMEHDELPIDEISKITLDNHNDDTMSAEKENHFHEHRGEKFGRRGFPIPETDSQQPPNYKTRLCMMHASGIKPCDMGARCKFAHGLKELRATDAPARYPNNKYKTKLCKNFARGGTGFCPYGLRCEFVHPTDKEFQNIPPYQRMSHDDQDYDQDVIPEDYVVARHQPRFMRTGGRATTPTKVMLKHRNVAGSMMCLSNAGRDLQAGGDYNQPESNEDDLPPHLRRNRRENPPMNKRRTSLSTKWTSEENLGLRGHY

[4] = target: T4, Calpain-2 catalytic subunit (Sus scrofa, UniProt P43367); experiment: m-calpain protease blockers, concentration series – biochemical, fluorogenic peptide substrate, dose response (AID 1420); type: functional
T4 sequence (P43367 whole entry): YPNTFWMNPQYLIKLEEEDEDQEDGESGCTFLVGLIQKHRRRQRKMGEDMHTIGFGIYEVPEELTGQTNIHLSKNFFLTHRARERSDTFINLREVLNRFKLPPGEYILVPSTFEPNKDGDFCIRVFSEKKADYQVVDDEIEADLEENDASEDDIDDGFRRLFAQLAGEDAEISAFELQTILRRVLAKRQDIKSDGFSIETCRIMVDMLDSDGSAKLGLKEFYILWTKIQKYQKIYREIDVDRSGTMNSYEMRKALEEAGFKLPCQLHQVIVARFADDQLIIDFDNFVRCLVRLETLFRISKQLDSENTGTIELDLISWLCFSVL

Paired box protein Pax-8 = Paired box protein Pax-8 (Homo sapiens, UniProt Q06710); experiment: PAX8 transcriptional activity inhibition in RMG-I – RMG-I cells, luciferase, cherry-pick, dose response (AID 687027); type: functional, cell-based;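 further: luciferase reporter driven by Pax8 target thyroperoxidase promoter measured by SteadyGlo luminescence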
Sequence of Paired box protein Pax-8 (Q06710 whole entry): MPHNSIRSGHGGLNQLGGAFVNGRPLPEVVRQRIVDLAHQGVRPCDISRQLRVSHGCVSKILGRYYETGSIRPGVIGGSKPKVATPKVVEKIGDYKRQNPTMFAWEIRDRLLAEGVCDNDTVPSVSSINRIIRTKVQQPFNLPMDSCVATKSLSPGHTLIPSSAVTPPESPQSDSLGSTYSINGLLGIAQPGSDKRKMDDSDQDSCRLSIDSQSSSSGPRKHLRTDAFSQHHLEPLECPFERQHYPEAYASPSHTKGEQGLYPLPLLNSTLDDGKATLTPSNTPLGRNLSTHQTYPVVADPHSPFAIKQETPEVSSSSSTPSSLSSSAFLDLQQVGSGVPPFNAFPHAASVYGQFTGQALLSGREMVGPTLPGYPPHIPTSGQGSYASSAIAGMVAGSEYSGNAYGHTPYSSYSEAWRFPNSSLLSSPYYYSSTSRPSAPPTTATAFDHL

[5] = target: T5, Corticotropin-releasing factor receptor 2/Corticotropin-releasing factor-binding protein (Homo sapiens, UniProt P24387+Q13324); experiment: activators of CRF receptor 2 with binding protein – uHTS hits, confirmation (AID 602473); type: functional; conditions: read-out: EC50_Mean
T5 sequence (Q13324 whole entry): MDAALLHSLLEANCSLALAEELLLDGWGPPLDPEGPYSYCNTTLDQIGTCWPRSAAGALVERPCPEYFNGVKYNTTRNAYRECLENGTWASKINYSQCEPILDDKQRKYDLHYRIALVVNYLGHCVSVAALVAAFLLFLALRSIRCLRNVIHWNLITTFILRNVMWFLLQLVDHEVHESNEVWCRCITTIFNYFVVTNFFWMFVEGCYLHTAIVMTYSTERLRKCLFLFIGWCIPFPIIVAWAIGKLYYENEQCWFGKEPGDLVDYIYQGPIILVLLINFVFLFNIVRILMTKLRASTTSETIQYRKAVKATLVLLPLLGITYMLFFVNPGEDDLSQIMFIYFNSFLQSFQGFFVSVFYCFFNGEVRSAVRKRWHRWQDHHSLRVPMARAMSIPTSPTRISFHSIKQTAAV
T5 sequence (P24387 whole entry): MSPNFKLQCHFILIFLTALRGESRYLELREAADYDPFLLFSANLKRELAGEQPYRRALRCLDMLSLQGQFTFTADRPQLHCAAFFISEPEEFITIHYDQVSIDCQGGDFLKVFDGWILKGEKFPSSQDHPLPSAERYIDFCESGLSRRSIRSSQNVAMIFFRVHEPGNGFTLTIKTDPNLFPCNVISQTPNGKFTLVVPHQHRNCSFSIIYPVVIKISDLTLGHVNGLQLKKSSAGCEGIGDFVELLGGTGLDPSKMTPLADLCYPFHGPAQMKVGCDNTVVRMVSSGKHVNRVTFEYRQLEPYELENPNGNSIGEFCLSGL

[6] = target: FAD-linked sulfhydryl oxidase ALR (Homo sapiens, UniProt P55789); experiment: ALR-catalysed DTT oxidation blockers – biochemical, H2O2 detection, luminescence, cherry-pick, dose response (AID 493248)
Sequence of FAD-linked sulfhydryl oxidase ALR (P55789 whole entry): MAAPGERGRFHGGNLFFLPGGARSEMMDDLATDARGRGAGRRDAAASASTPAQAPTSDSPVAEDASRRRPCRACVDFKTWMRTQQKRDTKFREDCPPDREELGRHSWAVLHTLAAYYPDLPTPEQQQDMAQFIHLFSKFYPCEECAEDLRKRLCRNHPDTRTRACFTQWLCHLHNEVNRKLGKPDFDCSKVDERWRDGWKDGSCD

[7] = target: T5, Corticotropin-releasing factor receptor 2/Corticotropin-releasing factor-binding protein; experiment: Dose Response confirmation of uHTS hits for small molecule antagonists of the CRF-binding protein and CRF-R2 receptor complex.; type: functional; conditions: read-out: IC50_Mean
cells [8] = type: functional, cell-based
cells [9] = type: functional, cell-based; remark: listed apart in the source
[10] = NIH-3T3 fibroblast cytotoxicity, dose response, cytotoxicity control, cell-based, fluorescence, Alamar Blue, secondary assay (AID 2327); type: functional;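 further: NIH-3T3 mouse fibroblasts cultured with fluconazole at 8 µg/mL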
cells [11] = type: functional

COc1ccc(-c2cc(C(=O)N/N=C(\C)c3ccco3)c3ccccc3n2)c(OC)c1
EC50 (Streptokinase A): > 150 µM (not active) | EC50 [1]: > 150 µM (not active) | EC50 (Streptococcus): > 150 µM (not active) | EC50 [2]: > 300 µM (not active) | EC50 [3]: > 300 µM (not active)

CCCCn1c(S)nnc1-c1csc2c1CCC(C)C2 (centres undefined)
IC50 [4]: 18.2 µM (not active)

CC(C)Cn1c(N)c(C(=O)COC(=O)c2cccc(Cl)c2)c(=O)n(C)c1=O
IC50 [4]: 6.14 µM (active)

COc1ccc(S(=O)(=O)Nc2ccc3c(c2)C(=O)N([C@H](C)CO)C[C@@H](C)[C@H](CN(C)C(=O)Nc2ccc(C(F)(F)F)cc2)OCCCC[C@H](C)O3)cc1
AC50 (Paired box protein Pax-8): 7.32 µM (active)

CCCS(=O)(=O)N1CCCC(C(=O)NCCCN(CC)c2cccc(C)c2)C1 (centres undefined)
EC50 [5]: > 53 µM (inactive) | AC50 [6]: 1.48 µM (active) | IC50 [7]: > 47.1 µM (inactive)

Cc1ccc(NCc2nnc3n2CCCCC3)c(C)c1
AC50 [6]: 1.35 µM (active)

CC(C)(C)c1ccc(-c2nc3cc(N)ccc3o2)cc1
AC50 [6]: 0.751 µM (active)

CCCCN(CCCC)C(=O)/C=C/c1cccc([N+](=O)[O-])c1
IC50 [4]: 19.4 µM (not active)

O=C(NCCS(=O)(=O)N1CCN(c2ccccc2F)CC1)C1CC(=O)N(c2ccc(F)cc2)C1 (centres undefined)
EC50 (Streptokinase A): > 150 µM (not active) | EC50 [1]: > 150 µM (not active) | EC50 (Streptococcus): > 150 µM (not active) | EC50 (cells [8]): > 350 µM (not active) | EC50 (cells [9]): > 350 µM (not active)

Cc1ccc(C)c(OC(=O)c2cncc(Br)c2)c1
EC50 [10]: > 160 µM (inactive)

CCOc1ccc(OCC(=O)Nc2ccc(OC)cc2)cc1
IC50 (cells [11]): 26.4 µM (active)

Cc1cc(NC(=S)N(Cc2cccc(Br)c2)CC2CCC(C(=O)O)CC2)ccc1Cl (centres undefined)
IC50 [4]: 11.3 µM (not active)

O=C(O)c1cccc(S(=O)(=O)Nc2ccc(N3CCCCC3)cc2)c1
AC50 [6]: 1.75 µM (active)

Cc1cccc(/C=C/C(=O)c2ccc(N3CCOCC3)cc2)c1
IC50 [4]: 15.7 µM (not active)
